Source: ChEMBL document CHEMBL5120855, “Potent 2,3-dihydrophthalazine-1,4-dione derivatives as dual inhibitors for mono-ADP-ribosyltransferases PARP10 and PARP15” (Eur J Med Chem, 2022)

Key:
[1] = target: T1, Protein mono-ADP-ribosyltransferase PARP12 (Homo sapiens, UniProt Q9H0J9); assay: Inhibition of human PARP12
T1 sequence (Q9H0J9 whole entry): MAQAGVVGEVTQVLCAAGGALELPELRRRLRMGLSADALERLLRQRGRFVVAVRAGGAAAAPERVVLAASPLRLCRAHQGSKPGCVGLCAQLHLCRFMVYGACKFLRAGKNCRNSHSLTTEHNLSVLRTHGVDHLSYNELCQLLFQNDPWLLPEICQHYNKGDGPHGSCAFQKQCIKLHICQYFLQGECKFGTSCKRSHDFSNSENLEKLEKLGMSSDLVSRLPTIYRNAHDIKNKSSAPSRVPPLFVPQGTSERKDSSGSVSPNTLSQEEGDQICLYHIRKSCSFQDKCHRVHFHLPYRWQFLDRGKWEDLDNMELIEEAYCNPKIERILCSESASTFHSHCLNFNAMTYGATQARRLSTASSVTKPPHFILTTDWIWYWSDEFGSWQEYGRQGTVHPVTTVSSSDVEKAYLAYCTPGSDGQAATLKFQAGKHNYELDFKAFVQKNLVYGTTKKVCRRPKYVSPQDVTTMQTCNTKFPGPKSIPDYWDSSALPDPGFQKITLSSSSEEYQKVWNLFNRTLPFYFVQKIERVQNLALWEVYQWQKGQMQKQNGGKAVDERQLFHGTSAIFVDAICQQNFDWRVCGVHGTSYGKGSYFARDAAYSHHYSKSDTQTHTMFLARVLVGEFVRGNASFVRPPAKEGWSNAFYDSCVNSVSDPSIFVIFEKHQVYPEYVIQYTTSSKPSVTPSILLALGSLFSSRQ

[2] = target: T2, Protein mono-ADP-ribosyltransferase PARP16 (Homo sapiens, UniProt Q8N5Y8); assay: Inhibition of human PARP16
T2 sequence (Q8N5Y8 whole entry): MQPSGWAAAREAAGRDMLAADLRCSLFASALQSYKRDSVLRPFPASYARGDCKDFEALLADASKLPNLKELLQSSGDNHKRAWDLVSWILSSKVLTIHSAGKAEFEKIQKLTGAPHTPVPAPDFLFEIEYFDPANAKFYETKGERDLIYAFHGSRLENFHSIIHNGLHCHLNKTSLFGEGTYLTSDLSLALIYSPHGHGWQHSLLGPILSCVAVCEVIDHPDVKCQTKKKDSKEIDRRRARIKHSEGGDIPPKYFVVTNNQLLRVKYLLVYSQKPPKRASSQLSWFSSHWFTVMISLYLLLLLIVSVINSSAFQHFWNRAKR

HeLa = assay: Rescue of cell viability in human HeLa cells expressing wild type PARP10 at upto 10 uM incubated for 10 to 12 days by methylene blue dye based colony formation assay; assay type: functional
[3] = target: Protein mono-ADP-ribosyltransferase PARP14 (Homo sapiens, UniProt Q460N5); assay: Inhibition of human PARP14 using NAD+ as substrate incubated for 10 mins by fluorescence based analysis
Protein mono-ADP-ribosyltransferase PARP14, sequence (Q460N5 whole entry): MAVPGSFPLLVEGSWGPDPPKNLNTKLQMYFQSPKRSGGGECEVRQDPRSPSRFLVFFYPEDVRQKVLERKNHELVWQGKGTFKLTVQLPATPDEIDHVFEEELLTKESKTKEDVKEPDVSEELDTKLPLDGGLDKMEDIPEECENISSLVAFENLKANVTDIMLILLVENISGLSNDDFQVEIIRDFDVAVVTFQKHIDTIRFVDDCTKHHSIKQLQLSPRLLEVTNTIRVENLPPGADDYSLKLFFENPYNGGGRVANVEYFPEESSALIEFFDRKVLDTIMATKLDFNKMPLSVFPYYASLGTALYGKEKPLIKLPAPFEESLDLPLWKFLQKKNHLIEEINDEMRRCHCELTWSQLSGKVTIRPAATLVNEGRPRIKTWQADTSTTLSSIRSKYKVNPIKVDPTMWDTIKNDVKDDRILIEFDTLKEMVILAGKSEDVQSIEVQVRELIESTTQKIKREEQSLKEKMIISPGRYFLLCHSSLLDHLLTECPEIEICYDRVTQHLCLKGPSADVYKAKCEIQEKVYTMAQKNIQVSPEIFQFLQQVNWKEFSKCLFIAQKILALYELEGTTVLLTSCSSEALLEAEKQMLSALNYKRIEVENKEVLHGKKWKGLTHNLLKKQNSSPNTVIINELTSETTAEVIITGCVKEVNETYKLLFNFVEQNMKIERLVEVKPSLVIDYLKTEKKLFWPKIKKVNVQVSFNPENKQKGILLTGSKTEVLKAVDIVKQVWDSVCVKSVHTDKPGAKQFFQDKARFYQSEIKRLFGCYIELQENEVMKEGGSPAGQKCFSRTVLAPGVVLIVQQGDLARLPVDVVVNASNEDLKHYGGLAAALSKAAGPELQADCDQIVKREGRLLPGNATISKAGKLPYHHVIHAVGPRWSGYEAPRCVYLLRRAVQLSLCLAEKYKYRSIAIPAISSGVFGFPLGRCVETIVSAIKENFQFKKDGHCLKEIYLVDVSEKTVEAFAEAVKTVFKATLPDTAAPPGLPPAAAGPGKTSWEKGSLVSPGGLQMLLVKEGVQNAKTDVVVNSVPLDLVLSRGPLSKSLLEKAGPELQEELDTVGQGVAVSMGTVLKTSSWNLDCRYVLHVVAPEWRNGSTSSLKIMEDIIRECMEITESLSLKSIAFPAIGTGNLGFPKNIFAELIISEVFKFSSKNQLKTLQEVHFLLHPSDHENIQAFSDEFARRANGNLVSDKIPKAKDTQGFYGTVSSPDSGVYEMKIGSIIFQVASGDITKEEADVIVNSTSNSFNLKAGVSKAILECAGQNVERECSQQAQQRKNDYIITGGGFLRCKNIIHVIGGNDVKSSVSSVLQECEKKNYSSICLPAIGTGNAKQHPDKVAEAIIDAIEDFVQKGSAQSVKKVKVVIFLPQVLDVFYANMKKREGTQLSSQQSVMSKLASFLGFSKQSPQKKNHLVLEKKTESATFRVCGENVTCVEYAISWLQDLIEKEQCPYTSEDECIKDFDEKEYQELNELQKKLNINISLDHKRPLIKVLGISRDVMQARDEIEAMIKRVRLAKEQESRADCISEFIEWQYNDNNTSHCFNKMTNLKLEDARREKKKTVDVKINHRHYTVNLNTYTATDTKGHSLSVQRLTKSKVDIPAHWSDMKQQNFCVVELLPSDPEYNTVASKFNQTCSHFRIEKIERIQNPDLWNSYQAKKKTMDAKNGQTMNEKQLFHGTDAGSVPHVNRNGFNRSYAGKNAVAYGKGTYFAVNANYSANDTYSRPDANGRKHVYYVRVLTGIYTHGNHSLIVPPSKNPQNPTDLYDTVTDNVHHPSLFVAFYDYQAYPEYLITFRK

[4] = target: T3, Poly [ADP-ribose] polymerase tankyrase-1 (Homo sapiens, UniProt O95271); assay: Inhibition of human TNKS1
T3 sequence (O95271 whole entry): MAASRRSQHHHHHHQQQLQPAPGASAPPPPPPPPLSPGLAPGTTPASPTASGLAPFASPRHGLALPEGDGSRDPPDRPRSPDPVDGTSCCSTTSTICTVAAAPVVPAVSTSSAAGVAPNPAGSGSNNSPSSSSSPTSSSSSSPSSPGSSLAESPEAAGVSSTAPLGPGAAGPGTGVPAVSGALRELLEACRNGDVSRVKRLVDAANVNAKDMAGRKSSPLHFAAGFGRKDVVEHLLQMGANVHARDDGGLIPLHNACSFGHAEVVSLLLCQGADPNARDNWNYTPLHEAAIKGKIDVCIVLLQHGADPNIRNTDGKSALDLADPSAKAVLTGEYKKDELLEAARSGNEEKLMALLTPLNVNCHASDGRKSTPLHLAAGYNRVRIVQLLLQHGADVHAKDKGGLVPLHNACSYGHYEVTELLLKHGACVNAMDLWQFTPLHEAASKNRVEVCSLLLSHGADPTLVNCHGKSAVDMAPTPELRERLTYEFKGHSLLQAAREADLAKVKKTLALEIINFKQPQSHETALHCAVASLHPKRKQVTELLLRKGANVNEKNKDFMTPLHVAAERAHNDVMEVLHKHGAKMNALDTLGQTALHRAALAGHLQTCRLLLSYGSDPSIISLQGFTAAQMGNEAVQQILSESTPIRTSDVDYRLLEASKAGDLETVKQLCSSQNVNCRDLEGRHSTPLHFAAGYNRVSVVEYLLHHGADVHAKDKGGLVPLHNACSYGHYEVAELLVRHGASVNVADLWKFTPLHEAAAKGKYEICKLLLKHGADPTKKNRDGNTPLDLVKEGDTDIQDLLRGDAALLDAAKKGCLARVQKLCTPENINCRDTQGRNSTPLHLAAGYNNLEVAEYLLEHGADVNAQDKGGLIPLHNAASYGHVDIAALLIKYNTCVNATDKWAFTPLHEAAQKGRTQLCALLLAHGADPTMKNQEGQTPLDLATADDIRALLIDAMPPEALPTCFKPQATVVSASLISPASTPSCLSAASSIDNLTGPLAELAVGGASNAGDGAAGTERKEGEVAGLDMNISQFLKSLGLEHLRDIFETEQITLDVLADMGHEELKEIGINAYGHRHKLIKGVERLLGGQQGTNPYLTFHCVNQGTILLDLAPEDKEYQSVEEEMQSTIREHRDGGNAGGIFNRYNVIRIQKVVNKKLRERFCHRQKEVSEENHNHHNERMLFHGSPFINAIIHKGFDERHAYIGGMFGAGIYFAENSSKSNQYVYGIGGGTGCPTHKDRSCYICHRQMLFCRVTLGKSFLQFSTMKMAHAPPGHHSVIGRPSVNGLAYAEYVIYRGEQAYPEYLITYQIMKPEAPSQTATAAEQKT

[5] = target: Poly [ADP-ribose] polymerase 1 (Homo sapiens, UniProt P09874); assay: Inhibition of human PARP-1 using NAD+ as substrate incubated for 10 mins by fluorescence based analysis
Poly [ADP-ribose] polymerase 1, sequence (P09874 whole entry): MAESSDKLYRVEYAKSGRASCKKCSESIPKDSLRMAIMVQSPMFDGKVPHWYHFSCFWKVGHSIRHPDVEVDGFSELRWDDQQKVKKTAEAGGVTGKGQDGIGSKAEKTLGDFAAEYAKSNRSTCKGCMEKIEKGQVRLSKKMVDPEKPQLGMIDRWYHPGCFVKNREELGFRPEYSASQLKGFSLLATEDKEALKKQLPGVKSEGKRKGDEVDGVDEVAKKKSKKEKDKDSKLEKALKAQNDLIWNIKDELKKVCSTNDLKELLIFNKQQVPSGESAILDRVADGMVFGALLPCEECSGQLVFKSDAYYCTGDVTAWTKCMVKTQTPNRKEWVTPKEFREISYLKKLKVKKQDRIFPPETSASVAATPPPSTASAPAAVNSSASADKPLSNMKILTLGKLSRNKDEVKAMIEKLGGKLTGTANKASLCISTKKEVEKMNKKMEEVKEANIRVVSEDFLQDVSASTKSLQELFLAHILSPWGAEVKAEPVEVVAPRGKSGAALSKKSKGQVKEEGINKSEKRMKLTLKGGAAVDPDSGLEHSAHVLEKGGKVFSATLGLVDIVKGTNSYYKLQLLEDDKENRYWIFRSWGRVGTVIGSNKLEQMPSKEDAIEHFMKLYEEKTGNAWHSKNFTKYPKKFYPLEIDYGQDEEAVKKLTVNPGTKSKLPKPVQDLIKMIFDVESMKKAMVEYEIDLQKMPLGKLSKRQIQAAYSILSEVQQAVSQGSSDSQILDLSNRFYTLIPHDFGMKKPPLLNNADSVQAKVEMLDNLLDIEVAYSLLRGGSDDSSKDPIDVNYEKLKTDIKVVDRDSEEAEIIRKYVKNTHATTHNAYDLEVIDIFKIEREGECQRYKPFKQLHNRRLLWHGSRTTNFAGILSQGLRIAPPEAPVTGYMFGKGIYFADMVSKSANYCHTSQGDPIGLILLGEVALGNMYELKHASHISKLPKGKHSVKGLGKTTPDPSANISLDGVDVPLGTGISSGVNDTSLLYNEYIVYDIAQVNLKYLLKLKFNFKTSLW

NC(=O)c1ccc(OCC2CCC2)cc1
IC50 [1]: > 10 µM | IC50 [2]: > 10 µM | EC50 (HeLa): 0.59 µM | IC50 [3]: > 10 µM | IC50 [4]: > 100 µM | IC50 [5]: > 100 µM
